The test system of data set [1] is stem cells. Nature of the data set: stimulation of cellular proliferation, 3H thymidine incorporation of stem cells. It is filed as cell-based. To be noted: loop peptides of human TGFα; compared to TGF-α 50 aa and 57 aa polypeptide; FIG. 2. An excerpt: Each of the three loop regions in human TGFα was investigated for TGFα-like biological activity, such as stimulation of cellular proliferation as measured by ^3H thymidine incorporation of stem cells. […] Accordingly, data from TGFα or TGF-α57 show what can be called “TGF-α activity” and that these are predictive of activity of the functional TGF-α peptide and similar functional TGF-α peptides embodied in the genus of formula I with or without the addition of a “tail” region of formula II.

For data set [2], the system named is human CD34 positive and CD38 negative cells. The data set is described as follows: liquid primary culture of human bone-marrow enriched CD34 cells. The settings on record: positive control, 500 ng/ml. The class given is cell-based. As for the experimental part: An additional experiment investigated TGF-α activity (using TGF-α57) on human bone-marrow enriched CD34 cells. FACS-sorted human CD34 positive and CD38 negative cells were cultured in liquid primary cultures in Iscove's modified Dulbecco's media with supplements. […] Stem Cell Factor (SCF) was used as a positive control (500 ng/ml) and provided a three-fold increase in CD34 positive cells. When a combination of SCF (500 ng/ml) and TGFα (10 ng/ml) was added, a synergistic 12-fold increase in CD34 positive cells was observed.

Data set [3] is classed as in vivo. The settings on record: non-human primate, 300 μg/kg ip once, then 50 μg/kg S.C. 6 days. As for the experimental part: (§1) In addition, studies of TGF-α for the treatment of diarrhea in non-human primates was also performed. […] This weight gain was maintained at least for several weeks post treatment. In addition, the reduction of SEGs (see column 6, Table 1) neutrophils correlates with reduction in inflammation associated with neutrophil influx and concomitant pro-inflammatory cytokines.

For data set [4], the system named is immune cells (T cell lineage), mast cells. The data set is described as follows: immune cells, mast cells and cytokines in vivo after CP. More on the design: species or system mice. The settings on record: in vivo. An excerpt: The stimulated immune cells were phenotypically identified as CD4 positive T cells and double null CD4 negative CD8 negative T cell progenitors. […] The in vivo activity of TGFα (and the functional peptides of formula I, formula II, formula III, and formula IV) to stimulate early T cell progenitors in the release of TH-1 and TH-2 cytokines and this regulation of immune phenomena. The stimulation of select immune cells, in particular cells of a T cell lineage, was seen consistently in the mice who received CP and TGF-α57 in lymphoid tissue, Peyers Patches and the spleen. Further, recruitment of help via CD4 cells in some cases boosts immune system function in general.
This is a parallel activity that is in addition to the gastrointestinal anti-inflammatory activity and prevention of mucositis of TGFα (and the functional peptides of formula I, formula II, formula III, and […]) described herein.

The test system of data set [5] is EGF receptor family (e.g., ErbB1 through 4). The settings on record: background statement; cited from earlier work.
The conditions of data set [6]: cited from earlier work.
Data set [7] relates to mouse intestines. The data set is described as follows: histological examination of intestines of CP-treated mice. It is filed as in vivo. The settings on record: CP treatment; 50 μg/kg; FIG. 4. As for the experimental part: The experiment procedure dosed those animals to be treated with TGFα 57 4 hours prior to challenge with CP. A single dose of CP was administered. Additional doses (as indicated) of TGFα 57 were made at 24 hours, 48 hours, 72 hours and 96 hours after the CP dose. All doses were made by IP injection. Controls were dosed with saline instead of either or both of CP and TGF-α57.
The animals were sacrificed about 4 hours after the last TGF-α57 (or saline) dose. Key organs were removed and spleens were immediately weighed after a clean incision. All the relevant organs were placed in formalin, transported for histopathological analysis, mounted, sectioned, stained and observed. The results of this histological analysis of the spleens for hematopoietic effect and the GI tract (below) provided surprising and unexpected data of the effect of TGF-α57 activity.
TGFα or a peptide from formula I, formula II, formula III, formula IV, formula V, or formula VI having TGFα activity or combinations thereof are also useful for treating mucositis associated intestinal bleeding, dyspepsia caused by with cytotoxic therapy and for improving the barrier function of the GI tract compromised by cytotoxic therapy. The in vivo experiment with seven groups of mice described above for hematopoietic effects noted in spleens also examined the GI tract of these treated mice. […] A single row of intestinal crypt is found at the base of the mucosa. These crypts that lie between adjacent villi are surrounded by the same lamina propria that form the villous cores. Both columnar absorptive cells and goblet cells cover the villous surfaces. The goblet cells contain apical clear vacuoles. […] Specifically, the villus was long and slender. Both absorptive cells and goblet cells were visible at the surface of the villi, and there was an abundant amount of goblet cells on the surface.
A 160×magnification of the intestines of a CP-treated mouse, a normal mouse and a CP treated and TGFα57 treated mouse at the same doses as described above. […] The crypts were irregularly shaped and in had various heights. […] The crypts also appeared normal.
Red cells were visible at the damaged surface indicating intestinal bleeding. […] Globlet cells appeared interspersed, necrotic and fewer in number than normal. […] Specifically, the epithelial cells appeared normal with extended brush borders. The nuclei were very densely stained and elongated.
The histological data is summarized in FIG. 4 that measured average crypt height of the three groups of mice.
An alcian blue staining method permitted differentiation of absorptive cells and goblet cells. Goblet cell mucus is stained a blue color while the absorptive cells remain less stained. […] In the normal intestine each villus extended from the luminal surface to the basal muscularis mucosal surface. Goblet cells were scattered and predominated in the base of the villus whereas columnar absorptive cells lined the luminal surface. […] The injured absorptive and goblet cells were degenerating at the tip of the villi and abundant secretory mucus material was stained in the luminal surface. In the CP/TGF-α mouse, there were an increased number of goblet cells scattered throughout the villi. The intestinal villi appeared normal with elongation. […] The luminal plasma membranes of the villi were well protected by TGF-α treatment. The number of goblet cells was counted on the average unit length of intestine.

For data set [8] the following is noted: acid and heat; background statement; cited from earlier work.
The test system of data set [9] is chronic inflammatory-like gastrointestinal symptoms. The class given is in vivo, non-human primate. More on the design: wt.: unit not given here. To be noted: for wt.: non-human primate, 300 μg/kg ip once, then 50 μg/kg S.C. 6 days. The procedure:
as §1

Read-outs that look alike come from different tables or passages of the source.

Turning to “Loop A: loop peptide region of TGFα, amino acids 1-21 starting at the N terminus (VVSHFNDCPDSHTQFCFHGTC)”, the “TGF-α biological activity (stimulation of cellular proliferation)” value in data set [1] is “Only Loop C showed significant TGF-α activity”.
The same measure, in the same setting: in the case of “Loop B: loop peptide region of TGFα, amino acids 16 to 32 (CFHGTCRFLVQEDKPAC)” it was “Only Loop C showed significant TGF-α activity”.
“Loop C: loop peptide region of TGFα, amino acids 33 to 50; TGF-α mimetic peptide (VCHSGYVGARCEHADLLA)”: the “TGF-α biological activity (stimulation of cellular proliferation)” value in data set [1] is “significant TGF-α biological activity”.
As for “SCF: Stem Cell Factor, used as a positive control [reference compound]”, the “increase in CD34 positive cells” value in [2] is given as “three-fold”.
Consider “TGF-α: human transforming growth factor alpha, 50 amino acid polypeptide with three disulfide bonds, SEQ ID NO:1”, for which the “CD4^+” value amounted to 28.4% in [3] (Time 1); 36.7% in data set [3] (Time 3); 31.3% in data set [3] (Time 4); 33.4% in data set [3] (Time 5); 35.1% in [3] (Time 6). The “CD8^+” value in [3] (Time 1) is listed as 56.3%; in data set [3] (Time 3), 53.1%; in data set [3] (Time 4), 54.0%; in [3] (Time 5), 49.8%; in [3] (Time 6) it was 50.3%. The “Dual CD8^+ CD4^+” value is recorded as 6.7% in [3] (Time 1); 6.3% in data set [3] (Time 3); 9.1% in data set [3] (Time 4); 8.1% in [3] (Time 5); 7.7% in data set [3] (Time 6). The Seg in [3] (Time 1) worked out at 76%; in data set [3] (Time 2), 69%; in data set [3] (Time 3), 61%; in [3] (Time 4), 48%; in data set [3] (Time 5), 46%; in [3] (Time 6), 56%. Also, the “IL-6 and MIP” value in data set [4] was “downregulating IL-6 and MIP”. Moreover, the TNF-α receptors result in [4] was “downregulating TNF-α receptors”. For the same substance, the “mast cell degranulation and histamine release” value in data set [4] was “prevented mast cell degranulation and subsequent histamine release”. In addition, the neutrophil trafficking result in data set [4] was “blocking neutrophil trafficking”. For the same substance, the binding affinity result in data set [5] is reported as “high affinity in the nanomolar range”. The “estimated pKa of the lysine 29 ε amino” value in data set [6] is on record as 10.4. For the same substance, the average crypt height entry in [7] is listed as “more-than-restore crypt height loss”. Also, the stability result in data set [8] is “acid and heat stable”. Moreover, the stool consistency entry in data set [9] (300 μg/kg intraperitoneally once, then 50 μg/kg S.C. for 6 days) is reported as “steady increase in stool consistency”. The wt. was 5.80 in [9] (Time 1); 6.33 in data set [9] (Time 2); 6.74 in data set [9] (Time 3); 8.21 in data set [9] (Time 4); 8.93 in data set [9] (Time 5); 9.42 in data set [9] (Time 6). Further, in data set [9] (through the treatment period, 300 μg/kg intraperitoneally once, then 50 μg/kg S.C. for 6 days), the weight entry is given as “steady weight gain”.

The record behind these values is patent US6677307B2, “TGF-α polypeptides, functional fragments and methods of use therefor” (Kaleidos Pharma, Inc., priority 1999, dated 2004).
